In patent US6372747B1, “Farnesyl protein transferase inhibitors” (Schering Corporation, priority 1998, dated 2002):

Legend:
COS Cell = COS Cell IC50 (Cell-Based Assay); details: range stated for the group
Description: FPT IC50 (inhibition of farnesyl protein transferase, in vitro enzyme assay) and COS Cell IC50 (Cell-Based Assay) were determined following the assay procedures described in WO 95/10516, published Apr. 20, 1995. GGPT IC50 (inhibition of geranylgeranyl protein transferase, in vitro enzyme assay), Cell Mat Assay, and anti-tumor activity (in vivo anti-tumor studies) could be determined by the assay procedures described in WO 95/10516. The disclosure of WO 95/10516 is incorporated herein by reference thereto.

SMILES | IC50 (COS Cell) [nM] | melting point [°C]
CC(C)(CCNC(=O)[C@H]1CN(C2c3ccc(Cl)cc3CCc3cc(Br)cnc32)CCN1C(=O)NC1CCCCC1)n1ccnc1 (stereo partly shown) [Example 1] | 10 to 920 | 142 to 144
CC(C)(CCNC(=O)[C@H]1CN([C@H]2c3ccc(Cl)cc3CCc3cc(Br)cnc32)CCN1C(=O)CC1CCN(C(N)=O)CC1)n1ccnc1 [Example 8] | 10 to 920 | 123 to 127
NC(=O)[C@H](Cc1cnc[nH]1)NC(=O)[C@H]1CN(C2c3ccc(Cl)cc3CCc3cc(Br)cnc32)CCN1C(=O)NC1CCCCC1 (stereo partly shown) [Example 25] | 10 to 920 | 164 to 169
Cc1cn(CCNC(=O)[C@H]2CN(C3c4ccc(Cl)cc4CCc4cc(Br)cnc43)CCN2C(=O)NC2CCCCC2)cn1 (stereo partly shown) [Example 259] | ≤ 35 | 
